Measured values published in patent US20100028973A1, “METHOD FOR PRO[…] VIRUS, HOLLOW FIBER FOR CULTURING HEPATITIS VIRUS-INFECTED CELLS, AND USE THEREOF” (KYOTO UNIVERSITY, priority 2006, published 2010).

System: patient's serum-derived HCV
Experiment: HCV RNA in HuS-E/2 cells cultured in a hollow fiber and infected with patient's serum-derived HCV, with drug added (Example 5)
Format: cell-based, hepatitis C virus (HCV)
Details: NIM811 1 μg/ml; added after 24 hours of infection; HuS-E/2 cells in hollow fiber; collected after 3, 5 and 7 days; PCR
Description: HuS-E/2 cells with a density of 1×10^5 cells/well were packed into a lumen of a hollow fiber of a cellulose triacetate hollow fiber module (Toyobo Co., Ltd.; Code: TMHFK-001) by applying a centrifugal force of 80 G for 90 seconds, and then were shake-cultured with use of a 12-well plate. After 24 hours, the culture fluid was replaced with 0.8 ml of a culture fluid, prepared with use of human hepatocellular serum-free culture fluid (Toyobo Co., Ltd.; Code: TMHHM-001), which contained serum-derived HCV with 2×10^5 genome copies/ml. After 24 hours of infection, the culture fluid was removed, and the HuS-E/2 cells were washed with PBS three times. Then, three types of new culture fluid were separately added, namely a culture fluid containing INF alpha (1000 IU/ml), a culture fluid containing NIM811 (1 μg/ml), and a culture fluid containing neither of them. Each of the culture fluids was replaced with a new one every two days. The HuS-E/2 cells were collected after 3, 5, and 7 days of infection with serum-derived HCV, and their total RNA was collected with use of a Sepasol I (Nacalai Tesque, Inc). The total RNA was assayed for HCV RNA by a PCR method.

SMILES: C/C=C/C[C@@H](C)[C@@H](O)[C@H]1C(=O)N[C@@H](CC)C(=O)N(C)CC(=O)N(C)[C@@H]([C@@H](C)CC)C(=O)N[C@@H](C(C)C)C(=O)N(C)[C@@H](CC(C)C)C(=O)N[C@@H](C)C(=O)N[C@H](C)C(=O)N(C)[C@@H](CC(C)C)C(=O)N(C)[C@@H](CC(C)C)C(=O)N(C)[C@@H](C(C)C)C(=O)N1C [NIM811]
- proliferation of patient's serum-derived HCV in the cells (HCV RNA): remarkably inhibits
